From patent publication US11319337B2, “3-desoxy derivative and pharmaceutical compositions thereof” (Intercept Pharmaceuticals, Inc., priority 2016, dated 2022)
≈ marks a conversion by molar mass, not a printed value. Counter-ions that a name gives are not always drawn. Like-named read-outs stand apart in the source and are kept apart here.

Assays:
RXRα = RXRα (Homo sapiens, UniProt P19793); test: AlphaScreen nuclear receptor profile (agonist mode), RXRα; format: biochemical
GR = GR (Homo sapiens, UniProt P04150); test: AlphaScreen nuclear receptor profile (agonist mode), GR; format: biochemical
HepG2 cells [1] = test: In vitro cytotoxicity, cell viability by ATP content; format: cell-based; details: Homo sapiens, HepG2, read-out: ATP Content EC50
Pgp = biological target: T1, Pgp (Homo sapiens, UniProt P08183); test: Pgp-Glo Assay, Pgp ATPase activity; format: in vitro ADME; details: read-out: Pgp Substrate EC50
T1 construct: purchased V3591 and V3601
Description: The impact of Compound 1 on Pgp ATPase activity was examined in Pgp-GloTM Assay (Technical Bulletin; Pgp-GloTM Assay Systems Instructions for Use of Products […] and […]; Revised November 2015) according to the manufacturer's standard protocol.

CYP1A2 = biological target: T2, CYP1A2 (Homo sapiens, UniProt P05177); test: CYP450 screening, fluorescent signal, recombinant baculosomes, CYP1A2; format: in vitro ADME
T2 construct: purchased Invitrogen

PPARα = PPARα (Homo sapiens, UniProt Q07869); test: AlphaScreen nuclear receptor profile (agonist mode), PPARα; format: biochemical
PR = PR (Homo sapiens, UniProt P06401); test: AlphaScreen nuclear receptor profile (agonist mode), PR; format: biochemical
mTGR5 = mTGR5 (Mus musculus, UniProt Q80SS6); test: TGR5 cross species activity, mTGR5; format: cell-based; details: Table 3, cross species
dFXR = biological target: T3, dFXR (Canis lupus familiaris, UniProt A0A8I3N2S7); test: FXR cross species activity, dFXR; format: biochemical, dog; details: Table 2, cross species
T3 construct: printed for the human protein only; fused on or other part: GST tag, printed only for the human construct

TR = test: AlphaScreen nuclear receptor profile (agonist mode), TR; format: biochemical
CAR = CAR (Homo sapiens, UniProt Q14994); test: AlphaScreen nuclear receptor profile (agonist mode), CAR; format: biochemical
rFXR = rFXR (Rattus norvegicus, UniProt Q62735); test: FXR cross species activity, rFXR; format: biochemical; details: Table 2, cross species
CYP2C9 = biological target: T4, CYP2C9 (Homo sapiens, UniProt P11712); test: CYP450 screening, fluorescent signal, recombinant baculosomes, CYP2C9; format: in vitro ADME
T4 construct: purchased Invitrogen

LXRα = LXRα (Homo sapiens, UniProt Q13133); test: AlphaScreen nuclear receptor profile (agonist mode), LXRα; format: biochemical
VDR = VDR (Homo sapiens, UniProt P11473); test: AlphaScreen nuclear receptor profile (agonist mode), VDR; format: biochemical
PPARδ = PPARδ (Homo sapiens, UniProt Q03181); test: AlphaScreen nuclear receptor profile (agonist mode), PPARδ; format: biochemical
Description: Using the AlphaScreen assay, the selectivity of Compound 1 against the following nuclear receptors involved in the metabolic pathways can be evaluated: LXRα, LXRβ, PXR, CAR, […], PPARδ, PPARγ, RAR, RARα, VDR, TR, PR, RXRα, GR, and ER.

CYP2E1 = biological target: T5, CYP2E1 (Homo sapiens, UniProt P05181); test: CYP450 screening, fluorescent signal, recombinant baculosomes, CYP2E1; format: in vitro ADME
T5 construct: purchased Invitrogen; host or cells: baculosomes (insect-cell microsomes)
Description: To evaluate the potential of Compound 1 for drug-drug interactions, the six main CYP450 isoforms (CYP1A2, CYP2C9, CYP2C19, CYP2D6, CYP2E1, CYP3A4) are investigated (Obach, et al., J Pharmacol. Exp. Ther, 2006, 316, 336-348).

RAR = test: AlphaScreen nuclear receptor profile (agonist mode), RAR; format: biochemical
[2] = Critical micellar concentration; format: physicochemical; details: in […] NaCl water solution
rTGR5 = rTGR5 (Rattus norvegicus, UniProt Q80T02); test: TGR5 cross species activity, rTGR5; format: cell-based; details: Table 3, cross species
Human TGR5 = biological target: T6, Human TGR5 (Homo sapiens, UniProt Q8TDU6); test: HTR-FRET intracellular cAMP assay in NCI-H716 cells; format: cell-based
T6 construct: Human enteroendocrine NCI-H716 cells constitutively expressing TGR5; endogenous in cells; host or cells: NCI-H716
T6 sequence (Q8TDU6 1-330): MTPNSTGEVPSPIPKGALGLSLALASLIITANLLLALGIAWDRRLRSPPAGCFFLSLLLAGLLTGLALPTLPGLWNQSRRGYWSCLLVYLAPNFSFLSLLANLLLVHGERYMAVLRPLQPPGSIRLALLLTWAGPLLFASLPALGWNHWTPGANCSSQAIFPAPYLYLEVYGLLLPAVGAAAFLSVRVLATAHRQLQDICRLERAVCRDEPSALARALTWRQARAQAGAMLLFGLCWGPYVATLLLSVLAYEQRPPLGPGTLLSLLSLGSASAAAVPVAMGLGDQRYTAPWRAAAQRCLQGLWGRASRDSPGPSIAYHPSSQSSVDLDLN

LXRβ = LXRβ (Homo sapiens, UniProt P55055); test: AlphaScreen nuclear receptor profile (agonist mode), LXRβ; format: biochemical
[3] = 1-octanol-water partition coefficient (LogPA-); format: physicochemical; details: bile acids as ionized species
Experimental: (§1) Physiochemical properties of Compound 1 such as water solubility, critical micellar concentration, surface tension, and LogPA were determined using methods known in the art.

PXR = PXR (Homo sapiens, UniProt O75469); test: AlphaScreen nuclear receptor profile (agonist mode), PXR; format: biochemical
Human FXR = biological target: T7, Human FXR (Homo sapiens, UniProt Q96RI1); test: AlphaScreen assay, FXR-LBD-GST / SRC-1 LXXLL peptide recruitment; format: biochemical
T7 construct: Human FXR-LBD-GST was incubated
T7 sequence (Q96RI1 262-486 limits assumed): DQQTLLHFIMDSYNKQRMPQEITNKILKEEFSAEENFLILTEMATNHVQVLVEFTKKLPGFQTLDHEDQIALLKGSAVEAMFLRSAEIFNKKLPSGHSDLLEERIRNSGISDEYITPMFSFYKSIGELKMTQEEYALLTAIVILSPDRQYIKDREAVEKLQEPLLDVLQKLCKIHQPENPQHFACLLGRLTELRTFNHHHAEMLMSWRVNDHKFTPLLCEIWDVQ

HepG2 cells [4] = test: In vitro cytotoxicity, LDH release; format: cell-based; details: Homo sapiens
CYP3A4 = biological target: T8, CYP3A4 (Homo sapiens, UniProt P08684); test: CYP450 screening, fluorescent signal, recombinant baculosomes, CYP3A4; format: in vitro ADME
T8 construct: purchased Invitrogen

mFXR = mFXR (Mus musculus, UniProt Q60641); test: FXR cross species activity, mFXR; format: biochemical; details: Table 2, cross species
CYP2C19 = biological target: T9, CYP2C19 (Homo sapiens, UniProt P33261); test: CYP450 screening, fluorescent signal, recombinant baculosomes, CYP2C19; format: in vitro ADME
T9 construct: purchased Invitrogen; host or cells: baculosomes (insect-cell microsomes)

dTGR5 = dTGR5 (Canis lupus familiaris, UniProt A0A8I3PZA6); test: TGR5 cross species activity, dTGR5; format: cell-based, dog; details: Table 3, cross species
ER = test: AlphaScreen nuclear receptor profile (agonist mode), ER; format: biochemical
CYP2D6 = biological target: T10, CYP2D6 (Homo sapiens, UniProt P10635); test: CYP450 screening, fluorescent signal, recombinant baculosomes, CYP2D6; format: in vitro ADME
T10 construct: purchased Invitrogen; host or cells: baculosomes (insect-cell microsomes)

hERG potassium channel = hERG potassium channel (Homo sapiens, UniProt Q12809); test: biochemical
PPARγ = PPARγ (Homo sapiens, UniProt P37231); test: AlphaScreen nuclear receptor profile (agonist mode), PPARγ; format: biochemical
Water solubility = format: physicochemical; details: BA as protonated species, hs = highly soluble, read-out: Ws (water solubility)
Experimental: as §1

Surface tension at CMC = format: physicochemical; details: in […] NaCl water solution; in mN/m (unit assumed)
Experimental: as §1

CC[C@H]1[C@@H](O)[C@@H]2[C@H]([C@@H](O)C[C@]3(C)[C@@H]([C@H](C)CCC(=O)O)CC[C@@H]23)[C@@]2(C)CCCC[C@@H]12 [Compound 1, 7α,11β-dihydroxy-6α-ethyl-5β-cholan-24-oic acid]
EC50 (RXRα): > 300 µM | EC50 (GR): > 300 µM | EC50 (HepG2 cells [1]): > 300 µM | EC50 (Pgp): > 300 µM | IC50 (CYP1A2): > 10 µM | EC50 (PPARα): > 300 µM | EC50 (PR): > 300 µM | EC50 (mTGR5): > 200 µM | EC50 (dFXR): 1.65 ± 0.05 µM | EC50 (TR): > 300 µM | EC50 (CAR): > 300 µM | EC50 (rFXR): 0.49 ± 0.01 µM | IC50 (CYP2C9): > 10 µM | EC50 (LXRα): > 300 µM | EC50 (VDR): > 300 µM | EC50 (PPARδ): > 300 µM | IC50 (CYP2E1): > 10 µM | EC50 (RAR): > 300 µM | CMC (Critical Micellar Concentration) [2]: 2.0 mM | EC50 (rTGR5): > 200 µM | selectivity for FXR over TGR5, in words (Human TGR5): high selectivity for FXR over TGR5 | EC50 (Human TGR5; Table 1, intracellular cAMP, NCI-H716 cells, quantity not named in head (EC50 per Table 3), read-out: HTR-FRET (cAMP) Human TGR5 (NCI-H716 cells)): > 200 µM | EC50 (Human TGR5; Table 3, cross species, read-out: hTGR5 EC50): > 200 µM | EC50 (LXRβ): > 300 µM | LogPA- (1-octanol-water partition coefficient) [3]: 1.8 | EC50 (PXR): > 300 µM | FXR activation, in words (Human FXR): potent and selective activator | EC50 (Human FXR; Table 1, Human FXR-LBD-GST with biotinylated LXXLL SRC-1 peptide, quantity not named in head (EC50 per Table 2)): 0.14 ± 0.04 µM | FXR activation, in words (Human FXR; listed as compound of this invention): potent FXR agonists | EC50 (HepG2 cells [4]): > 300 µM | IC50 (CYP3A4; Blue Substrate, read-out: CYP3A4 (Blue Substrate) IC50): > 10 µM | IC50 (CYP3A4; Green Substrate, read-out: CYP3A4 (Green Substrate) IC50): > 10 µM | EC50 (mFXR): 0.6 ± 0.02 µM | IC50 (CYP2C19): > 10 µM | EC50 (dTGR5): > 200 µM | EC50 (ER): > 300 µM | IC50 (CYP2D6): > 10 µM | IC50 (hERG potassium channel): > 100 µM | EC50 (PPARγ): > 300 µM

CC[C@H]1[C@@H](O)[C@@H]2[C@H](CC[C@]3(C)[C@@H]([C@H](C)CCC(=O)O)CC[C@@H]23)[C@@]2(C)CC[C@@H](O)C[C@@H]12 [Compound A, 6α-ethyl-3α,7α-dihydroxy-5β-cholan-24-oic acid]
solubility (Water solubility): 9 mM (≈ 3.79 mg/mL) | CMC (Critical Micellar Concentration) [2]: 2.9 mM | LogPA- (1-octanol-water partition coefficient) [3]: 2.5 | STCMC (Surface Tension at CMC) (Surface tension at CMC): 43.2-48.8

CCC1C(O)C2C3CCC(C(C)CCOS(=O)(=O)O)C3(C)CCC2C2(C)CCC(O)CC12 (stereo not drawn) [Compound B, 6α-ethyl-3α,7α,23-trihydroxy-24-nor-5β-cholan-23-sulfate sodium salt]
LogPA- (1-octanol-water partition coefficient) [3]: 2.0

CC[C@H]1[C@@H](O)[C@@H]2[C@H](C[C@H](O)[C@]3(C)[C@@H]([C@H](C)C[C@H](C)C(=O)O)CC[C@@H]23)[C@@]2(C)CC[C@@H](O)C[C@@H]12 [Compound C, 6α-ethyl-23(S)-methyl-3α,7α,12α trihydroxy-5β-cholan-24-oic acid]
solubility (Water solubility): 99 mM (≈ 44.6 mg/mL) | CMC (Critical Micellar Concentration) [2]: 2 mM | LogPA- (1-octanol-water partition coefficient) [3]: 1.4 | STCMC (Surface Tension at CMC) (Surface tension at CMC): 50.1

CC[C@H]1[C@@H](O)C2C3CC[C@H]([C@H](C)C[C@H](C)C(=O)O)[C@@]3(C)CCC2[C@@]2(C)CC[C@@H](O)C[C@@H]12 (stereo partly drawn) [Compound D, 6α-ethyl-23(R)-methyl chenodeoxycholic acid]
solubility (Water solubility): 15 mM (≈ 6.52 mg/mL) | LogPA- (1-octanol-water partition coefficient) [3]: 2.9

CC[C@H]1[C@@H](O)C2C3C[C@H](O)[C@H]([C@H](C)CCC(=O)O)[C@@]3(C)CCC2[C@@]2(C)CC[C@@H](O)C[C@@H]12 (some centres unmarked) [Compound E]
solubility (Water solubility): 120 mM (≈ 52.4 mg/mL) | CMC (Critical Micellar Concentration) [2]: 5.9 mM | LogPA- (1-octanol-water partition coefficient) [3]: 1.6 | STCMC (Surface Tension at CMC) (Surface tension at CMC): 52.4

CC[C@H]1[C@@H](O)C2C3CC[C@H]([C@H](C)CCC(=O)O)[C@@]3(C)C[C@H](O)C2[C@@]2(C)CC[C@@H](O)C[C@@H]12 (stereo partly drawn) [Compound F, 3α,7α,11β-dihydroxy-6α-ethyl-5β-cholan-24-oic acid]
solubility (Water solubility): 143 to 150 mM (≈ 62.4 to 65.5 mg/mL) | LogPA- (1-octanol-water partition coefficient) [3]: 0.8
